Measured values reported in publication PMC6572854, “Convergent allostery in ribonucleotide reductase” (Nature Communications, 2019).
Where a chain is given by its changes, count along the chain named. Each block holds one molecule with its values, some of them ahead of it.

What was measured:
[1] = target: T1, NrdE (holo-NrdE; class Ib RNR alpha subunit) (Bacillus subtilis, UniProt P50620); assay: crystal structure ([…] Å); type: binding; conditions: allosteric; I-site, displacing dAMP; presumed hydrolysis product of added ATP; with TTP and GDP or CDP
T1 construct: tagless full-length (C-terminal residue V700), His6-SUMO tag cleaved, E. coli BL21(DE3); holo form co-purifies with dAMP; monomer, I-dimer, S-dimer or filament depending on nucleotides

[2] = target: T1, NrdE (holo-NrdE; class Ib RNR alpha subunit); assay: crystal structure ([…] Å) and SAXS titration; type: binding; conditions: allosteric; M-site; 5 mM Mg-ATP with TTP and GDP; may have displaced GDP
[3] = target: T2, NrdEF (holo-NrdE + Mn-reconstituted NrdF) (Bacillus subtilis, UniProt P50620); assay: cryo-EM structure ([…] Å); type: binding; conditions: allosteric; S-site and I-site of NrdE in NrdEF filament; 100 µM dATP, 1 mM CDP, 15 mM MgCl2, pH 7.6
T2 construct: tagless NrdE (SUMO tag cleaved) plus His6-tagged NrdF, E. coli host; alpha2beta2 asymmetric unit of filament; both nucleotide sites lie on NrdE; NrdF modelled only as C-terminal polyalanine peptide; with Ribonucleoside-diphosphate reductase subunit beta NrdF

[4] = target: T1, NrdE (holo-NrdE; class Ib RNR alpha subunit); assay: cryo-EM structure ([…] Å) and SAXS titration; type: binding; conditions: allosteric; S-site and I-site; 100 µM dATP, 1 mM CDP, 15 mM MgCl2, pH 7.6; dATP displaces co-purified dAMP at I-site
[5] = target: T3, Bacillus subtilis NrdE C382S, tagless (Bacillus subtilis, UniProt P50620 1-700, C382S); assay: SAXS titration; 0-20 µM Fe-NrdF titrated to 4 µM C382S holo-NrdE, 50 µM dATP, 1 mM CDP, assay buffer with 5% glycerol, 4 °C; singular value decomposition; conditions: both partners purified
T3 construct: NrdE, α subunit of the class Ib ribonucleotide reductase of Bacillus subtilis, with the catalytic cysteine C382 changed to serine; Used in all SAXS experiments where NrdF was added, to prevent changes in nucleotide concentrations (D1:p2); also called C382S holo-NrdE; C382S NrdE
T3 sequence: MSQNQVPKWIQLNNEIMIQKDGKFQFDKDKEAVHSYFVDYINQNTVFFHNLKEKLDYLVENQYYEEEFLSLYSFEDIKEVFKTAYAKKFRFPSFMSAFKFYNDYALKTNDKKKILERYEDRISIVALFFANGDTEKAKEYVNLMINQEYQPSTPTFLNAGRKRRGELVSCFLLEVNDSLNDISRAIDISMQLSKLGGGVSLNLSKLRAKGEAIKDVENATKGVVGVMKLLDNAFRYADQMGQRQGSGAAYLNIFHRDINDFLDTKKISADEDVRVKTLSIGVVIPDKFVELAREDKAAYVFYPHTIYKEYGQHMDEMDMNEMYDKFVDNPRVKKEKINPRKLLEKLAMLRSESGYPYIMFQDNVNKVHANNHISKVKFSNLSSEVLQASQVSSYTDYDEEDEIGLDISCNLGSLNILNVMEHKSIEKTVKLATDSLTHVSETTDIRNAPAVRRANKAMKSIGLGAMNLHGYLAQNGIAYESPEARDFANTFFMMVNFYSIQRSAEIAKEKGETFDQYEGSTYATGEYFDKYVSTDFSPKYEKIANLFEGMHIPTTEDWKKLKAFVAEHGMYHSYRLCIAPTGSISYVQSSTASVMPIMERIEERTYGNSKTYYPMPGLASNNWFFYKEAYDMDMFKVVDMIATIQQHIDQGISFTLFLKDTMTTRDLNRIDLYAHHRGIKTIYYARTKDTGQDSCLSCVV

[6] = target: T4, Bacillus subtilis class Ib ribonucleotide reductase alpha subunit NrdE, wild type, tagless (Bacillus subtilis, UniProt P50620 1-700); assay: cryo-EM structure; 20 µM holo-NrdE with 20 or 40 µM Mn-reconstituted NrdF, 100 µM dATP, 1 mM CDP, diluted four-fold; NrdEF filament, 4.7 Å map; conditions: both partners purified
T4 construct: NrdE, alpha subunit of the class Ib ribonucleotide reductase of Bacillus subtilis; tagless after SUMO protease; also called apo-NrdE (dAMP-free)
T4 sequence: T3 sequence with S382C

[7] = target: the molecule itself; assay: SEC-SAXS; stoichiometric mixture of C382S holo-NrdE and NrdF with 1 mM ATP and 250 µM TTP, 4 °C
[8] = target: the molecule itself; assay: SEC-SAXS; 80 µM wt holo-NrdE loaded, 250 µM TTP, 1 mM ATP, assay buffer with 1% glycerol, 4 °C; fit of the dataset to I-dimer, S-dimer and monomer in OLIGOMER

T1 sequence (P50620 whole entry): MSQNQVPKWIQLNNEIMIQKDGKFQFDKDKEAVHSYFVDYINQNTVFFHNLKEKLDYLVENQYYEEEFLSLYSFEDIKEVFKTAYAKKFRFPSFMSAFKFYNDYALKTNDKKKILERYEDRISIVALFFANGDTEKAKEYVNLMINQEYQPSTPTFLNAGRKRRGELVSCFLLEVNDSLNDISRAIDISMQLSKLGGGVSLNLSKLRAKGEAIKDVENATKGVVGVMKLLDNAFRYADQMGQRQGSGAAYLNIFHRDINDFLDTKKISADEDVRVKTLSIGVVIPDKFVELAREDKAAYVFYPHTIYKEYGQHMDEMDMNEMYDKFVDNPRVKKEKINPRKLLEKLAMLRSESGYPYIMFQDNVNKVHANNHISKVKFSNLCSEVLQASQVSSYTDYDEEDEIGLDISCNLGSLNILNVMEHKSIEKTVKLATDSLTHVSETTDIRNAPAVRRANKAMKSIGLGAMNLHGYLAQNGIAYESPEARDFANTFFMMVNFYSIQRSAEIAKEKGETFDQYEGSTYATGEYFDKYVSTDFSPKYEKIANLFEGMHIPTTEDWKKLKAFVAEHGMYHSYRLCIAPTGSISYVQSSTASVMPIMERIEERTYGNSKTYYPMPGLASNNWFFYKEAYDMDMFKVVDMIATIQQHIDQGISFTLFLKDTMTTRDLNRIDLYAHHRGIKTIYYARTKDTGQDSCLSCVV
T2 sequence (P50620 whole entry, one chain of several): as the sequence (P50620 whole entry) above

Molecule: Nc1ncnc2c1ncn2[C@@H]1O[C@H](COP(=O)(O)OP(=O)(O)O)[C@@H](O)[C@H]1O [ADP]
crystal structure (2.50, 2.55, 2.95 Å) [1]: Electron density at the I-site showed strong evidence for an ADP ligand displacing dAMP

Molecule: Nc1ncnc2c1ncn2[C@@H]1O[C@H](COP(=O)(O)OP(=O)(O)OP(=O)(O)O)[C@@H](O)[C@H]1O [ATP]
crystal structure (2.50, 2.55 Å) and SAXS titration [2]: we also observed nearby electron density for an ATP ligand with the adenine ring positioned

cryo-EM structure (4.7 Å) [3]: a dATP molecule at each S- and I-site
Molecule: Nc1ncnc2c1ncn2[C@H]1C[C@H](O)[C@@H](COP(=O)(O)OP(=O)(O)OP(=O)(O)O)O1 [dATP]
cryo-EM structure (6 Å) and SAXS titration [4]: For both filaments, excess density at the S-site was modeled as dATP

stoichiometry N [5]: ~1 NrdF per NrdE (subunits)
B1: Bacillus subtilis class Ib ribonucleotide reductase NrdF (β subunit), His6-tagged, metal-reconstituted (enzyme)
chain: MTKIYDAANWSKHEDDFTQMFYNQNVKQFWLPEEIALNGDLLTWKYLGKNEQDTYMKVLAGLTLLDTEQGNTGMPIVAEHVDGHQRKAVLNFMAMMENAVHAKSYSNIFMTLAPTETINEVFEWVKQNKYLQKKAQMIVGLYKAIQKDDEISLFKAMVASVYLESFLFYSGFYYPLYFYGQGKLMQSGEIINLILRDEAIHGVYVGLLAQEIYNKQTEEKKAELREFAIDLLNQLYENELEYTEDLYDQVGLSHDVKKFIRYNANKALMNLGFDPYFEEEDINPIVLNGLNTKTKSHDFFSMKGNGYKKATVEPLKDDDFYFEDEKEQI
notes: NrdF, β subunit of the class Ib ribonucleotide reductase of Bacillus subtilis; Fe-NrdF was used in the subunit titration, Mn-NrdF in SEC-SAXS and cryo-EM; also called Fe-NrdF; Mn-NrdF; source: produced in a similar manner as NrdE but without the tag cleavage steps, purified; reconstituted with Fe(III)2-Y• or Mn(III)2-Y•, MonoQ

binding result [6]: binds
B2: Bacillus subtilis class Ib ribonucleotide reductase beta subunit NrdF, His6-tagged, metal-reconstituted (enzyme)
chain: B1 chain
notes: NrdF, beta subunit of the class Ib ribonucleotide reductase of Bacillus subtilis; Fe-NrdF in the SAXS subunit titration, Mn-reconstituted NrdF in cryo-EM; also called Fe-NrdF
binding result [7]: binds

B3: Bacillus subtilis class Ib ribonucleotide reductase NrdE (α subunit), wild type, tagless (enzyme)
chain: T3 sequence with S382C
notes: NrdE, α subunit of the class Ib ribonucleotide reductase of Bacillus subtilis; holo-NrdE carries the co-purified dAMP ligand, apo-NrdE is nucleotide-free; same polypeptide; also called wt apo-NrdE (dAMP-free)
stoichiometry N [8]: 2
